Key:
MAPK1(ERK2) enzyme = target: T1, MAPK1(ERK2) enzyme (Homo sapiens, UniProt P28482); test: Z-Lyte Kinase Assay of ERK2; format: biochemical; conditions: read-out: Example 18 IC50
T1 construct: purchased Invitrogen PV3313
How it was run: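 FRET-based Z-LYTE assay using ERK2 kinase with Ser/Thr3 peptide; compound tested at 0.00046–1 μM final in 2% DMSO. Kinase reaction ran 1 h at 25-30° C, followed by 1 h development. The coumarin/fluorescein emission ratio (445/520 nm) gave % phosphorylation, and IC50 was fitted from inhibition relative to uninhibited control.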

[1] = tested on: p-RSK (Thr359) in colo205 cells; test: p-RSK (Thr359) Acumen Assay in Colo205; format: cell-based; conditions: Homo sapiens, COLO 205, 1 hour compound incubation, read-out: Example 19 IC50
How it was run: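 Colo205 cells (4000/well, seeded overnight in 10% FBS) were exposed 1 hour at 37° C to compound added from a 3–0.001 μM dilution series in 5% DMSO. Cells were then fixed, permeabilised and immunostained for p-RSK Thr359, with PI counterstain. Acumen cytometry gave the percentage of positive cells, normalised to untreated wells and 3 uM GDC0994 wells, for the IC50 fit.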

T1 sequence (P28482 whole entry): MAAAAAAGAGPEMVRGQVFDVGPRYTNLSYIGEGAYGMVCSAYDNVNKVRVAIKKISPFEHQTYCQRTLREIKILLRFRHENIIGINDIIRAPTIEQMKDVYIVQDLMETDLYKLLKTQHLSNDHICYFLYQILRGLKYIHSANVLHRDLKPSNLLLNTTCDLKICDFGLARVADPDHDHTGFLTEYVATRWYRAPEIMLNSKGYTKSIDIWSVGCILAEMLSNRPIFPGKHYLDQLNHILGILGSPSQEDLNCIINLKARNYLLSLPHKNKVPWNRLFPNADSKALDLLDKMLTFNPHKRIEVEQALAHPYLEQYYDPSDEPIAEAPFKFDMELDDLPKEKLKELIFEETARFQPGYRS

| SMILES | IC50 (MAPK1(ERK2) enzyme) | IC50 [1] |
| --- | --- | --- |
| COc1cc(Nc2ncc(C)c(-c3cc4n(c3)C[C@H](C)n3c-4nnc3C(F)(F)c3ccccc3F)n2)c(C)cn1 [Compound 294] | > 10 nM | > 100 nM |
| FC[C@H]1Cn2cc(-c3cc(NN4CCOCC4)ncc3Cl)cc2-c2nnc(C(F)(F)c3ccccc3F)n21 [Compound 274] | > 10 nM | ≤ 100 nM |
| Cc1cnc(Nc2ccnn2C)nc1-c1cc2n(c1)C[C@H](C)n1c-2nnc1C(F)(F)c1cc(F)ccc1F [Compound 134] | 5 to 10 nM | ≤ 100 nM |
| Cn1nccc1Nc1cc(-c2cc3n(c2)CCn2c(COc4ccccc4F)nnc2-3)c(Cl)cn1 [Compound 23] | 5 to 10 nM | ≤ 100 nM |
| C[C@H]1Cn2cc(-c3nc(Nc4ccnn4C)ncc3F)cc2-c2nnc(C(F)(F)c3ccccc3Cl)n21 [Compound 143] | > 10 nM | ≤ 100 nM |
| C[C@@H](c1ccccc1)c1nnc2n1CCCn1cc(-c3cc(Nc4ccnn4C)ncc3Cl)cc1-2 [Compound 15] | 5 to 10 nM | ≤ 100 nM |
| Cc1cnc(Nc2ccnn2C)cc1-c1cc2n(c1)CC1(Cn3c-2nnc3C(F)(F)C(F)F)CC(F)(F)C1 [Compound 168] | 5 to 10 nM | > 100 nM |
| Cc1cnccc1Nc1ncc(C)c(-c2cc3n(c2)CCCn2c-3nnc2C2(C(F)(F)F)CCC2)n1 [Compound 286] | 5 to 10 nM | ≤ 100 nM |
| Cc1cnc(Nc2ccnn2C)cc1-c1cc2n(c1)C[C@H](C(F)F)n1c-2nnc1C(F)(F)c1ccccc1F [Compound 179] | > 10 nM | ≤ 100 nM |
| Cn1nccc1Nc1cc(-c2cc3n(c2)C[C@H](Cc2ccccc2)n2c-3nnc2C2(C(F)(F)F)CCC2)c(Cl)cn1 [Compound 210] | > 10 nM | > 100 nM |
| Cn1nccc1Nc1cc(-c2cc3n(c2)C[C@H](CF)n2c-3nnc2C(F)(F)c2ccccc2Cl)c(Cl)cn1 [Compound 206] | > 10 nM | ≤ 100 nM |
| Cc1cnc(Nc2ccnn2C)cc1-c1cc2n(c1)CC(C)(F)Cn1c-2nnc1C(F)(F)C(F)F (stereo not drawn) [Compound 72] | 5 to 10 nM | ≤ 100 nM |
| C[C@H]1Cn2cc(-c3cc(Nc4ccnn4C)ncc3Cl)cc2-c2nnc(C(F)(F)n3cc(Cl)cn3)n21 [Compound 157] | 5 to 10 nM | ≤ 100 nM |
| Cc1cnc(Nc2ccnn2C)cc1-c1cc2n(c1)CC1(CCC1)n1c-2nnc1C(F)(F)C(F)F [Compound 242] | 5 to 10 nM | > 100 nM |
| C[C@H](Oc1ccccc1F)c1nnc2c3cc(-c4ccnc(Nc5ccnn5C)n4)cn3ccn12 [Compound 39, (S)-4-(3-(1-(2-fluorophenoxy)ethyl)pyrrolo[1,2-a][1,2,4]triazolo[3,4-c]pyrazin-9-yl)-N-(1-methyl-1H-pyrazol-5-yl)pyrimidin-2-amine] | 5 to 10 nM | ≤ 100 nM |
| Cn1nccc1Nc1cc(-c2cc3n(c2)CCCn2c-3nnc2C(F)(F)c2ccccc2Cl)c(Cl)cn1 [Compound 35] | > 10 nM | ≤ 100 nM |
| Cc1cnc(Nc2ccnn2CCO)nc1-c1cc2n(c1)C[C@H](C)n1c-2nnc1C(F)(F)c1ccccc1F [Compound 293] | 5 to 10 nM | ≤ 100 nM |

| SMILES | IC50 (MAPK1(ERK2) enzyme) | IC50 [1] |
| --- | --- | --- |
| Cn1nccc1Nc1cc(-c2cc3n(c2)CC(F)(F)Cn2c(Cn4ccc(F)c4C#N)nnc2-3)c(Cl)cn1 [Compound 218] | 5 to 10 nM | ≤ 100 nM |
| Cc1cnc(Nc2ccnn2C)cc1-c1cc2n(c1)C[C@H](CF)n1c-2nnc1C(F)(F)c1ccc(F)cc1 [Compound 128] | 5 to 10 nM | ≤ 100 nM |
| Cn1nccc1Nc1cc(-c2cc3n(c2)CC2(CCC2)Cn2c-3nnc2C2(C(F)(F)F)CCC2)c(Cl)cn1 [Compound 55, 5-chloro-N-(1-methyl-1H-pyrazol-5-yl)-4-(3′-(1-(trifluoromethyl)cyclobutyl)-5′H,7′H-spiro[cyclobutane-1,6′-pyrrolo[1,2-a][1,2,4]triazolo[3,4-c][1,4]diazepin]-10′-yl)pyridin-2-amine] | 5 to 10 nM | ≤ 100 nM |
| Cn1nccc1Nc1cc(-c2cc3n(c2)CCCCn2c-3nnc2C2(C(F)(F)F)CCC2)c(Cl)cn1 [Compound 261] | > 10 nM | ≤ 100 nM |
| Cc1cnc(Nc2ccnn2C)nc1-c1cc2n(c1)C[C@H](CF)n1c-2nnc1C(F)(F)c1ccccc1F [Compound 131] | ≤ 5 nM | ≤ 100 nM |
| Cc1c(-c2ccnc(Nc3ccnn3C)n2)cn2c1-c1nnc(Nc3ccccc3F)n1CCC2 [Compound 42] | ≤ 5 nM | > 100 nM |
| Cn1nccc1Nc1cc(-c2cc3n(c2)CC(CO)Cn2c-3nnc2C2(C(F)(F)F)CCC2)c(Cl)cn1 (stereo not drawn) [Compound 299, (10-(5-chloro-2-((1-methyl-1H-pyrazol-5-yl)amino)pyridin-4-yl)-3-(1-(trifluoromethyl)cyclobutyl)-6,7-dihydro-5H-pyrrolo[1,2-a][1,2,4]triazolo[3,4-c][1,4]diazepin-6-yl)methanol] | ≤ 5 nM | ≤ 100 nM |
| Cc1cnc(Nc2ccnn2C)nc1-c1cn2c(n1)-c1nnc(C(F)(F)c3ccccc3Cl)n1[C@H](CF)C2 [Compound 224] | ≤ 5 nM | ≤ 100 nM |
| C[C@@H](CO)Nc1ncc(Cl)c(-c2cc3n(c2)CCCn2c-3nnc2C2(C(F)(F)F)CCC2)n1 [Compound 276] | ≤ 5 nM | ≤ 100 nM |
| Cc1cnc(Nc2ccnn2C)cc1-c1cc2n(c1)C[C@H](CF)n1c-2nnc1C(F)(F)n1cc(Cl)cn1 [Compound 153] | ≤ 5 nM | ≤ 100 nM |
| Cc1cnc(Nc2ccnn2C)nc1-c1cc2n(c1)C[C@H](C)n1c-2nnc1C(F)(F)c1ccccc1Cl [Compound 125] | 5 to 10 nM | ≤ 100 nM |
| Cn1nccc1Nc1cc(-c2cc3n(c2)CCCn2c-3nnc2C2(C(F)(F)F)CCC2)c(C#N)cn1 [Compound 248] | 5 to 10 nM | > 100 nM |
| Cc1cnc(Nc2ccnn2C)cc1-c1cc2n(c1)C[C@H](CF)n1c-2nnc1C(F)(F)c1ccccc1Cl [Compound 172] | 5 to 10 nM | ≤ 100 nM |
| Cc1cnc(Nc2ccnn2C)cc1-c1cc2n(c1)CC1(CC1)Cn1c-2nnc1C1(C(F)(F)F)CCC1 [Compound 258] | ≤ 5 nM | ≤ 100 nM |
| Cn1nccc1Nc1nccc(-c2cn3c(c2F)-c2nnc(COc4ccccc4F)n2CCC3)n1 [Compound 246] | ≤ 5 nM | ≤ 100 nM |
| Cn1nccc1Nc1cc(-c2cc3n(c2)CC(F)(F)Cn2c(Cn4cc(F)cn4)nnc2-3)c(Cl)cn1 [Compound 106] | ≤ 5 nM | ≤ 100 nM |

Second part, the compound after the results:

| IC50 (MAPK1(ERK2) enzyme) | IC50 [1] | SMILES |
| --- | --- | --- |
| ≤ 5 nM | ≤ 100 nM | COc1ccccc1C(F)(F)c1nnc2n1[C@@H](CF)Cn1cc(-c3nc(Nc4ccnn4C)ncc3C)cc1-2 [Compound 167] |
| ≤ 5 nM | ≤ 100 nM | Cc1cnc(Nc2ccnn2C)cc1-c1cc2n(c1)CCCn1c-2nnc1C1(C(F)(F)F)CCC1 [Compound 237] |
| ≤ 5 nM | ≤ 100 nM | Cn1nccc1Nc1cc(-c2cc3n(c2)C[C@H](CF)n2c-3nnc2C2(F)CC2)c(Cl)cn1 [Compound 56] |
| ≤ 5 nM | > 100 nM | Cn1nccc1Nc1cc(-c2cc3n(c2)CCCn2c-3nnc2C2(C(F)(F)F)CC2)c(Cl)cn1 [Compound 21] |
| ≤ 5 nM | ≤ 100 nM | Cn1nccc1Nc1cc(-c2cc3n(c2)C[C@H](CF)n2c-3nnc2C2(C(F)(F)F)CCC2)c(Cl)cn1 [Compound 121] |
| ≤ 5 nM | > 100 nM | Cc1cnc(Nc2ccnn2C)nc1-c1cc2n(c1)CCn1c-2nnc1C1(C(F)(F)F)CCC1 [Compound 5] |
| ≤ 5 nM | ≤ 100 nM | CCC(F)(F)c1nnc2n1[C@@H](CF)Cn1cc(-c3cc(Nc4ccnn4C)ncc3Cl)cc1-2 [Compound 61] |
| ≤ 5 nM | ≤ 100 nM | Cn1nccc1Nc1cc(-c2cc3n(c2)CC2(COC2)Cn2c-3nnc2C2(C(F)(F)F)CCC2)c(Cl)cn1 [Compound 307] |
| ≤ 5 nM | ≤ 100 nM | C[C@H]1Cn2cc(-c3ccnc(Nc4ccnn4C)n3)cc2-c2nnc(C(F)(F)c3ccccc3F)n21 [Compound 71] |
| ≤ 5 nM | ≤ 100 nM | Cn1nccc1Nc1cc(-c2cc3n(c2)C[C@H](CF)n2c-3nnc2C(F)(F)c2nccs2)c(Cl)cn1 [Compound 161] |
| ≤ 5 nM | ≤ 100 nM | Cn1nccc1Nc1nccc(-c2cc3c4nnc(COc5ccccc5F)n4ccn3c2)n1 [Compound 2] |
| ≤ 5 nM | ≤ 100 nM | [2H]C([2H])([2H])n1nccc1Nc1cc(-c2cc3n(c2)CCCn2c-3nnc2C2(C(F)(F)F)CCC2)c(C)cn1 [Compound 240] |
| ≤ 5 nM | > 100 nM | Cn1nccc1Nc1cc(-c2cc3n(c2)CCCn2c(Cn4cc(Cl)cn4)nnc2-3)c(Cl)cn1 [Compound 73] |
| ≤ 5 nM | ≤ 100 nM | Cn1nccc1Nc1cc(-c2cc3n(c2)C[C@H](CF)n2c-3nnc2C(F)(F)c2ccccc2F)c(F)cn1 [Compound 145] |
| ≤ 5 nM | ≤ 100 nM | Cn1nccc1Nc1cc(-c2cc3n(c2)CCCn2c-3nnc2[C@](C)(O)C(F)(F)F)c(Cl)cn1 [Compound 26] |
| ≤ 5 nM | > 100 nM | Cn1nccc1Nc1cc(-c2cc3n(c2)CCCn2c-3nnc2C2(C(F)(F)F)CCC2)c(F)cn1 [Compound 241] |
| ≤ 5 nM | ≤ 100 nM | Cn1nccc1Nc1ncc(Cl)c(-c2cc3c4nnc(CC(F)(F)F)n4ccn3c2)n1 [Compound 212] |
| ≤ 5 nM | ≤ 100 nM | Cn1nccc1Nc1cc(-c2cc3n(c2)CCCn2c-3nnc2C2(C(F)(F)F)CCC2)c(Cl)cn1 [Compound 30] |
